In this assay the target is Metabotropic glutamate receptor 5 (Rattus norvegicus, UniProt P31424). Description: Binding Assay: Binding assays were performed as described in Schaffhauser H, Richards J G, Cartmell J, Chaboz S, Kemp J A, Klingelschmidt A, Messer J, Stadler H, Woltering T and Mutel V (1998) In vitro binding characteristics of a new selective group II metabotropic glutamate receptor radioligand, [3H]LY354740, in rat brain. Mol Pharmacol 53:228-233) at room temperature with slight modifications. Format: tissue-based.

Among the data in ChEMBL document CHEMBL3639017, “Thiazolyl mGluR5 antagonists and methods for their use” (2013) are Ki values, retold here.

pKi: −log10 of the molar value.

Chain of Metabotropic glutamate receptor 5 (P31424 whole entry): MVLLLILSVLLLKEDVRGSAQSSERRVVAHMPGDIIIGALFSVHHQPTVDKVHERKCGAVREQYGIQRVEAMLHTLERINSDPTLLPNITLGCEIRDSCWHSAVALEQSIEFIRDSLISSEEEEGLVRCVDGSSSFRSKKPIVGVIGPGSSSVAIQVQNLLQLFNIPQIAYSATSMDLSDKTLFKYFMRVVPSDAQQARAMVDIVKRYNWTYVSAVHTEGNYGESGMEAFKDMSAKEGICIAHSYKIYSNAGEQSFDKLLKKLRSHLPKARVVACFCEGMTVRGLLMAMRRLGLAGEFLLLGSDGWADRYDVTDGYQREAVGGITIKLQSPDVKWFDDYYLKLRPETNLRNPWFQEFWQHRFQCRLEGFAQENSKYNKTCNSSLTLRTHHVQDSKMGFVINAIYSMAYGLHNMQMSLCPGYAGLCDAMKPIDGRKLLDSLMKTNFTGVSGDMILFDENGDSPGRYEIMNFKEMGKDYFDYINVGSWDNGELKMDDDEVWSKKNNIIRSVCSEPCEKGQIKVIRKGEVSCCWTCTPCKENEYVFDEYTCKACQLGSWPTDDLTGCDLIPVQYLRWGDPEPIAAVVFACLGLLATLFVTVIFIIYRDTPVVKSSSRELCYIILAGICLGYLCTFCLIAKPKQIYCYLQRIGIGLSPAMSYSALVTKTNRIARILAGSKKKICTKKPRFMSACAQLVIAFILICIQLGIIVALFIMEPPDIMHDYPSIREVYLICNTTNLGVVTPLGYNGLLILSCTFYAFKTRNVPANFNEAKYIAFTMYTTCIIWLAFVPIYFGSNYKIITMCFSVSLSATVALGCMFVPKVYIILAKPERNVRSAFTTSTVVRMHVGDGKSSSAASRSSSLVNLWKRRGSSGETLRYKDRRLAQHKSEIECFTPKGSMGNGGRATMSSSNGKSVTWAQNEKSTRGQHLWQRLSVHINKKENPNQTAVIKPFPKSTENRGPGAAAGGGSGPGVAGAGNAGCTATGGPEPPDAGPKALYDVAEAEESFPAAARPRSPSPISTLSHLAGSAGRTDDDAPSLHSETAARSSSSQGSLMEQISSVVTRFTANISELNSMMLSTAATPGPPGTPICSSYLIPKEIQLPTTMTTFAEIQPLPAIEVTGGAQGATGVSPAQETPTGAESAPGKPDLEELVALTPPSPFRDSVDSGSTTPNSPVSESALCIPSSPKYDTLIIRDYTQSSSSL

Usually pKi stands for the Ki on a negative log10 scale, so that one unit is a factor of ten. A low value points to a high Ki. For `Cc1nc(C#Cc2ccc(-c3ccccc3C#N)nc2)cs1`, the pKi was 8.59.
